Test results reported in PubChem BioAssay AID248 (DTP/NCI, 2004).
Inconclusive results and toxic doses are left out. No stated cut-off is given here; in the data, active means T/C of 150% or more; inactive means T/C below 125%.

System: L1210 leukemia ip in BDF1 mice, survival T/C
Assay: NCI In Vivo Anticancer Drug Screen. Data for tumor model L1210 Leukemia (intraperitoneal) in B6D2F1 (BDF1) mice
Details: endpoint: mean survival time, vehicle: saline with Tween-80, higher = longer survival
Procedure, shortened: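 Transplantable tumor model; survival measured in treated vs vehicle control mice. Value = treated/control.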

Measured: T/C

COc1cc(/C=C(/C#N)C(N)=O)cc(OC)c1OC
inactive: dose: 100.0 mg/kg/injection, schedule: Q01DX009 (ip) 93 % of control | dose: 100.0 mg/kg/injection, schedule: Q04DX002 (ip) 97 % of control | dose: 200.0 mg/kg/injection, schedule: Q01DX009 (ip) 93 % of control | dose: 200.0 mg/kg/injection, schedule: Q04DX002 (ip) 93 % of control | dose: 400.0 mg/kg/injection, schedule: Q01DX009 (ip) 95 % of control | dose: 400.0 mg/kg/injection, schedule: Q04DX002 (ip) 97 % of control
